This is an account of results in patent US6827926B2, “Metallotetrapyrrolic photosensitizing agents for use in photodynamic therapy” (Miravant Pharmaceuticals, Inc., priority 2001, dated 2004).

The subject of series [1] is normal uninjured rat carotid arteries (medial and adventitial cell populations). Put plainly: In vivo rat carotid artery acellularity after PDT. On the set-up: species or system Sprague Dawley rats. The settings on record: for Max % Rat Artery Accelularity: Table 4; for Max % rat Artery Accelularity: Table 3, 50 J/cm^2, 3 days post treatment; for Max % Rat Artery Acceluarity: Table 5. As for the experimental part: The acute effects of metallated photosensitizers, in response to light activation, to cause depletion of cell populations in the medial and adventitial layers of vessels was measured in normal uninjured rat carotid arteries. […] Shortly before the light treatment, the rats were anaesthetized with 3.5% isoflurane (Abbott Laboratories, IL, USA) and the femoral region of the right leg was shaved and cleaned. […] A direct arteriotomy was performed and a light balloon catheter ([…] Medical Technologies, Inc) was introduced into the vessel and advanced retrogradely into a non-manipulated region of the left common carotid artery via the abdominal aorta. […] After light treatment and removal of the catheter, the right femoral artery was tied off and the skin wound was closed. Rats were sacrificed three days post treatment as this corresponds to the known peak time that vascular cells, e.g., VSMC and myofibroblasts, proliferate and migrate in response to an injury. The area spanning both left and right carotid arteries and surrounding tissue was harvested, fixed, embedded in paraffin and sectioned. The tissues were stained with Hematoxylin and Eosin (Fisher Scientific, PA) and examined by light microscopy to histologically assess the cell population density in the medial and adventitial layers of the PDT-treated vessel wall. […] Metallo azaporphyrins with Ga, Zn, Al, Sn were excited at 575 nm, while Pt azaporphyrins were excited at 532 nm.

Series [2] relates to normal skin of CD Hairless male rats. The format is in vivo, rat. From the text:
We tested metallo- and metal-free tetrapyrroles systemically (see following section) for normal skin response in relation to the pharmacodynamic distribution of the photosensitizers in CD hairless rats. The skin of CD hairless rats are poorly developed, often referred to as hyperkeratotic, with various sized cystic hair follicles containing concentric lamellar accumulations of keratinaceous material, which are often associated with enlarged sebaceous glands. It quickly became apparent that gallium tetrapyrroles induced a marked clearing of the hyperkeratotic lesions in the treatment areas on the hairless rats. In fact, this clearing could be induced without necrosis of the skin. No other metallotetrapyrrole type produced such effects. This observation led us to assess the metallotetrapyrrolic compounds for skin restructuring effects both topically and systemically and for their ability to reduce hair growth in the following animal models.
Photosensitizer normal skin response as well as skin healing response, was evaluated using CD Hairless male rats. Photosensitizers were administered in an liposomal egg yolk phospholipid formulation at 1, 1.5 and 2 μmol/kg body weight formulation per dose group as a single bolus intravenous injection given through a marginal tail vein using a 27 gauge needle and a 1 cc tuberculin syringe. Normal skin responses were evaluated by irradiating several spots on the skin of the rat with a 532 nm laser (150 mW/cm^2, 150J, 1 cm diameter) at 1, 6, 24, 48, and 96 hrs post injection. Normal skin responses were evaluated and documented. The time at which the last spot is observed at the concentration injected is reported in the far right hand column in Tables 3, 4, 5 and 6. Skin samples were taken for histological evaluation at days 1, 10, 20 and 22 post light treatment. Rats were housed under normal lighting and all study procedures involving the test article were conducted under light filtered through blue and green Roscolox light filters to prevent photoactivation or degradation of the drug.

Series [3] has as its system V79 (Chinese Hamster Lung Fibroblasts) cells. Put plainly: In vitro cytotoxicity assay (light EC50, Alamar blue). Format: cell-based. The essentials: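 V79 cells in phenol-free 5% FBS/DMEM exposed 24 h to photosensitizer at final 0.01–5.0 μM, six replicates, then washed and light-treated, with a dark plate as control. Survival by Alamar blue after 24 h dark incubation, read at 570/600 nm.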
In general terms: Resazurin is reduced to fluorescent resorufin, in cell work by metabolically active cells.

Where [4] appears, read: drug dose 1 μMol, 575 nm (Pt 532 nm).
Setting [5] is: Table 4 azaporphyrins, 575 nm (Pt azaporphyrins 532 nm), 1.25 J/cm^2, read-out: In Vitro EC(50).
Where [6] appears, read: Table 3 porphyrins, 24 h drug incubation, 532 nm, 1.25 J/cm^2, read-out: In Vitro EC50 Light.
Setting [7] is: Table 5 plant derived gallium porphyrins, light, read-out: In Vitro EC(50).
Where [8] appears, read: Table 3, time of last skin spot observed post injection, 1 μmol, 532 nm laser.

pEC50: −log10 of the molar value. Like-named read-outs stand apart in the source and are kept apart here.

In the case of `CCC1=C(CC)C2=[N+]3C1=Nc1c(CC)c(CC)c4[n]1[Ga-2]31([Cl])[n]3c(c(C)c(CCC(=O)OC)c3=CC3=[N+]1C(=C4)C(C)=C3CCC(=O)OC)=C2` [Example 21, Gallium Chloride 7,8,12,13-tetraethyl-12,17-dimethyl-10-azaporphyrin-2,18-di(propionic acid methyl ester)], the “Max % Rat Artery Accelularity” value in series [1] (setting [4]) is listed as 60%. In series [2] (rat, in vivo), the “Normal skin Response (1 μmol)” value came out at 24 h. Besides, the pEC50 in series [3] (setting [5]) was 6.40.

Turning to `CCCOC(=O)CCC1=C(C)c2cc3[n-]c(cc4nc(cc5[n-]c(cc1n2)c(CCC(=O)OCCC)c5C)C=C4C)cc3C.[Cl-].[Ga+3]` [Example 122, Gallium Chloride Deuteroporphyrin Di-propylester], the “Max % rat Artery Accelularity” value in series [1] (drug dose 1 μMol) is recorded as 95%. Also, in series [2] (rat, in vivo), the “Normal skin Response (1 μmol)” value came to 6 h. Further, in series [3] (setting [6]), the pEC50 was 6.46.

Take “Gallium Chloride 8,13-diethyl-3,7,12,17-tetramethylporphyrin-2,18-di(3′-hydroxypropyl) [Example 7]”: the “Max % rat Artery Accelularity” value in series [1] (drug dose 1 μMol) is recorded as 95%. The “reduction of smooth muscle cells in the media and myofibroblasts in the adventitial layers of rat arteries” value in series [1] (text b238) was “efficient at dramatically reducing the number of smooth muscle cells”. The “Normal skin Response (1 μmol)” value in series [2] (rat, in vivo) was 48 h. The pEC50 in series [3] (setting [6]) was 6.26.

As for `C=Cc1c(C)c2cc3nc(c(CC(=O)OC)c4[n-]c(cc5nc(cc1[n-]2)C(C)=C5CC)c(C)c4C(=O)NC)C(CCC(=O)OC)=C3C.[Cl-].[Ga+3]` [Example 14, Gallium Chloride Chloroporphyrin e6 Dimethyl Ester 12-methylamide], in series [1] (drug dose 1 μMol), the “Max % Rat Artery Acceluarity” value was determined as 65%. Further, the Normal skin Response (1 μmol) in series [2] (rat, in vivo) came to 6 h. Also, in series [3] (setting [7]), the pEC50 is 6.54.

On to `CCC1=C(C)c2cc3[n-]c(cc4nc(cc5[n-]c(cc1n2)c(C)c5CC)C(C)=C4CCCCC(=O)OC)c(CCCCC(=O)OC)c3C.[Cl-].[Ga+3]` [Example 57, Gallium Chloride 8,13-diethyl-3,7,12,17-tetramethylporphyrin-2,18-di(pentanoic acid methyl ester)], for which the “Max % rat Artery Accelularity” value in series [1] (drug dose 1 μMol) was 80%. Also, in series [1] (text b234, 1 μmol/Kg (printed 1 mol/Kg for 57)), the “acellularity (rat artery)” value is given as 80%. Moreover, in series [2] (rat, in vivo), the “Normal skin Response (1 μmol)” value turned out to be 6 h and the “factor of decrease of normal skin response / skin clearance time versus the parent methyl ester” value is recorded as 8. In addition, the pEC50 in series [3] (setting [6]) was 6.34.

In the case of `C=CC1=C(C)c2cc3[n-]c(cc4nc(cc5[n-]c(cc1n2)c(C)c5CCC(=O)OC)C(CCC(=O)OC)=C4C)c(C)c3C=C.[Cl-].[Ga+3]` [Example 42, Gallium Chloride Protoporphyrin Dimethyl Ester], in series [1] (drug dose 1 μMol), the “Max % rat Artery Accelularity” value is 70%. In addition, the “Normal skin Response (1 μmol)” value in series [2] (setting [8]) came to 6 h. Besides, the pEC50 in series [3] (setting [6]) is 6.32.

As for `CCC1=C(CC)C2=[N+]3C1=Nc1c(CC)c(CC)c4[n]1[Ga-2]31([Cl])[n]3c(c(C)c(CCC(=O)NC)c3=CC3=[N+]1C(=C4)C(C)=C3CCC(=O)NC)=C2` [Example 22, Gallium Chloride 7,8,12,13-tetraethyl-12,17-dimethyl-10-azaporphyrin-2,18-di(propionic acid methyl amide)], in series [1] (drug dose 0.5 μMol), the “Max % Rat Artery Accelularity” value came out at 50%. For the same compound, the “Normal skin Response (1 μmol)” value in series [2] (rat, in vivo) worked out at 48 h. For the same compound, the pEC50 in series [3] (setting [5]) was 6.35.

Consider `CCOC(=O)CCCCC1=C(C)C2=Cc3c(CC)c(C)c4[n]3[Al-2]35([Cl])[n]6c(c(C)c(CCCCC(=O)OCC)c6=CC1=[N+]23)=CC1=[N+]5C(=C4)C(CC)=C1C` [Example 54, Aluminum Chloride 8,13-diethyl-3,7,12,17-tetramethylporphyrin-2,18-di(pentanoic acid ethyl ester)], for which the “Max % rat Artery Accelularity” value in series [1] (drug dose 1 μMol) is recorded as 0%. Besides, the “Normal skin Response (1 μmol)” value in series [2] (rat, in vivo) is 24 h. The pEC50 in series [3] (setting [6]) is 5.40.

With `CCCOC(=O)CCCC1=C(C)C2=Cc3c(CC)c(C)c4[n]3[Ga]([Cl])[n]3c(c(C)c(CCCC(=O)OCCC)c3=CC1=N2)=CC1=NC(=C4)C(CC)=C1C` [Example 50, Gallium 8,13-diethyl-3,7,12,17-tetramethylporphyrin-2,18-di(butanoic acid propyl ester)], in series [1] (drug dose 1 μMol), the “Max % rat Artery Accelularity” value is recorded as 80%. Further, the “Normal skin Response (1 μmol)” value in series [2] (setting [8]) was 48 h. Besides, the pEC50 in series [3] (setting [6]) was 6.40.

On to “Aluminum Chloride 7,8,12,13-tetraethyl-12,17-dimethyl-10-azaporphyrin-2,18-di(propionic acid methyl ester) [Example 84]”, for which the “Max % Rat Artery Accelularity” value in series [1] (setting [4]) is listed as 50%. Besides, the “Normal skin Response (1 μmol)” value in series [2] (rat, in vivo) amounted to 48 h. In addition, the pEC50 in series [3] (setting [5]) was 7.40.

As to `CCC1=C(C)C2=Cc3c(CC)c(C)c4[n]3[Ga-2]35([Cl])[n]6c(c(C)c(C(=O)OC)c6=CC6=[N+]3C(=C4)C(C)=C6CCC(=O)NC)=CC1=[N+]25` [M=Ga R1=CONHMe R2=Et R3=Et R4=CO2Me R5=H], the “Max % Rat Artery Acceluarity” value in series [1] (drug dose 1 μMol) is listed as 65%. Further, the Normal skin Response (1 μmol) in series [2] (rat, in vivo) was 6 h. Besides, the pEC50 in series [3] (setting [7]) was 6.38.

For the compound `CC1=Cc2cc3[n-]c(cc4nc(cc5[n-]c(cc1n2)cc5C)C(C)=C4CCC(=O)OCCCCl)c(CCC(=O)OCCCCl)c3C.[Cl-].[Ga+3]` [Example 36, Gallium Chloride Deuteroporphyrin di (3-chloropropylester)], the “Max % rat Artery Accelularity” value in series [1] (drug dose 1 μMol) is reported as 80%. In series [2] (rat, in vivo), the “Normal skin Response (1 μmol)” value was 96 h. Besides, the pEC50 in series [3] (setting [6]) is 6.40.

As to `CCOC(=O)CCCC1=C(C)C2=Cc3c(C)c(CC)c4[n]3[Ga-2]35([Cl])[n]6c(c(C)c(CCCC(=O)OCC)c6=CC1=[N+]23)=CC1=[N+]5C(=C4)C(C)=C1CC` [M=Ga R1=Et R3=Me R4=Et R2=CH2CO2Et], the “Max % rat Artery Accelularity” value in series [1] (drug dose 1 μMol) worked out at 80%. In series [2] (rat, in vivo), the “Normal skin Response (1 μmol)” value was 24 h. Also, in series [3] (setting [6]), the pEC50 was 6.40.

In the case of `CCC1=C(C)C2=Cc3c(CC)c(C)c4[n]3[Ga-2]35([Cl])[n]6c(c(C)c(CCC(=O)O)c6=CC6=[N+]3C(=C4)C(C)=C6CCC(=O)O)=CC1=[N+]25` [M=Ga R1=Et R3=Me R4=Et R2=CO2H], in series [1] (4 hrs post administration), the “accelularity in rat artery at a four hour treatment point” value worked out at 15%. In series [1] (drug dose 1 μMol), the “Max % rat Artery Accelularity” value is listed as 15%. The “Normal skin Response (1 μmol)” value in series [2] (rat, in vivo) is 24 h. For the same compound, the pEC50 in series [3] (setting [6]) is 5.70.

Take `CCC1=C(C)c2cc3[n-]c(cc4nc(cc5[n-]c(cc1n2)c(C)c5CC)C(C)=C4CCCO)c(CCCO)c3C.[Pt+2]` [Example 74, Platinum 8,13-diethyl-3,7,12,17-tetramethylporphryin-2,18-di(3′-hydroxypropyl)]: the “Max % rat Artery Accelularity” value in series [1] (drug dose 1 μMol) worked out at 25%. The “Normal skin Response (1 μmol)” value in series [2] (rat, in vivo) was 24 h. In series [3] (setting [6]), the pEC50 was 7.00.

Consider `COC(=O)CCC1=C(C)c2cc3[n-]c(cc4nc(cc5[n-]c(cc1n2)c(CCC(=O)OC)c5C)C(Br)=C4C)c(Br)c3C.[Cl-].[Ga+3]` [Example 39, Gallium Chloride 3,8-dibromodeuteroporphyrin dimethyl ester], for which the “Max % rat Artery Accelularity” value in series [1] (drug dose 1 μMol) is given as 75%. For the same compound, in series [2] (rat, in vivo), the “Normal skin Response (1 μmol)” value came to 6 h. For the same compound, in series [3] (setting [6]), the pEC50 is 6.40.

With `CCOC(=O)CCCCC1=C(C)C2=Cc3c(CC)c(C)c4[n]3[Sn]([Cl])([Cl])[n]3c(c(C)c(CCCCC(=O)OCC)c3=CC1=N2)=CC1=NC(=C4)C(CC)=C1C` [Example 51, Tin(IV)dichloride 8,13-diethyl-3,7,12,17-tetramethylporphyrin-2,18-di(pentanoic acid ethyl ester)], in series [1] (drug dose 1 μMol), the “Max % rat Artery Accelularity” value came out at 20%. Besides, the “Normal skin Response (1 μmol)” value in series [2] (rat, in vivo) is 24 h. Further, the pEC50 in series [3] (setting [6]) is 5.77.
